Tests used:
[1] = test system: hBSMCs; test: Measurements of calcium transients (Indo-1) in hBSMCs; assay type: cell-based, human; conditions: 50 μM, 30 minutes, 40 mM KCl depolarizing solution
Procedure: Cells were washed with a Tyrode solution containing (in mmol/L): 5 HEPES, 154 NaCl, 4 KCl, 2 CaCl2, 1 MgCl2, 5.5 D-glucose, at pH 7.35 and placed on an inverted microscope. Cells were kept in Tyrode solution and treated with a KCl depolarizing solution containing (in mmol/L): 5 HEPES, 118 NaCl, 40 KCl, 2 CaCl2, 1 MgCl2, 5.5 D-glucose, at pH 7.35. Calcium transients were analyzed as the ratio of fluorescence signals measured at 400 nm and 490 nm following excitation of Indo-1-AM-loaded cells at 350 nm. Experiments were recorded and analyzed with Igor® Software, using the functions added by Jason Rothman (Neuromatic, www.thinkrandom.com).

[2] = test system: β2-AR/cAMP signaling; test: FRET imaging of cAMP (ICUE3 probe) in hBSMCs after β2-AR stimulation; assay type: cell-based, human; conditions: hBSMCs pre-treated 50 μM, 30 minutes; ISO 100 nM + CGP-20712A 100 nM
Procedure: Human bronchial smooth muscle cells (hBSMCs) were transfected with a plasmid encoding the FRET probe for cAMP, ICUE3 (described in the U.S. Pat. No. 8,236,523 B2) (2), by electroporation with a Nucleofector device (AMAXA, Gaithersburg, Md.), according to the manufacturer's protocol. Briefly, 1×10^6 cells were re-suspended in 100 μL of nucleofection solution (VPI-1004, AMAXA, Gaithersburg, Md.), mixed with 1 μg of pcDNA3-ICUE3 (described in U.S. Pat. No. 8,236,523 B2), and subjected to electroporation in a nucleofection apparatus of Amaxa Biosystems (Program A-033). Live cell imaging experiments were performed at 24 hours after transfection.
Measurements of cAMP levels were performed on human bronchial smooth muscle cells (hBSMCs) that express the FRET probe ICUE3, as described previously (2). Briefly, cells were maintained in a K^+-Ringer solution containing (in mmol/L) 121.6 NaCl, 5.4 KCl, 1.8 MgCl2, 1.8 CaCl2, 4 NaHCO3, 0.8 NaH2PO4, 5 D-glucose, 5 sodium pyruvate, 10 HEPES, at pH 7.4. […] FRET efficiency was calculated using the “Method 3” provided by the Leica wizard application for FRET imaging and sensitized emission, according to which: EA(i)=B/A, where EA(i) is the apparent FRET efficiency; A and B are the intensities of the CFP channel and FRET, respectively. […]

[3] = test system: wild-type CFTR; test: Chloride currents in Ussing chamber, NuLi-1 cells; assay type: cell-based, human; conditions: peptide 10-30 μM, P1 30 μM
Procedure: (§1) Human airway epithelial cell lines expressing a wild-type CFTR (NuLi-1) or with the ΔF508 mutation (CuFi-1) were purchased from ATCC (NuLi-1 product code: ATCC® CRL-4011™; CuFi-1 product code: ATCC® CRL-4013™). Cells were cultured in Dulbecco's Modified Eagle Medium (DMEM, Gibco, Carlsbad, Calif.) supplemented with 10% fetal bovine serum (FBS), 30 μg/mL of penicillin, 100 μg/mL of streptomycin and 300 μg/mL hygromycin B (Gibco, Carlsbad, Calif.).
(§2) To measure chloride currents in normal and ΔF508 primary human bronchial epithelial cells, cells were cultured on 1.12 cm^2 Snapwell inserts. Filters were mounted in Ussing chambers, and a chloride gradient was applied by incubating the cells in a basolateral high-chloride buffer containing (in mmol/L): 140 NaCl, 5 KCl, 0.36 K2HPO4, 0.44 KH2PO4, 1.3 CaCl2, 0.5 MgCl2, 4.2 NaHCO3, 10 HEPES, and 10 glucose, at pH 7.4 and an apical low-chloride buffer containing (in mmol/L): 133.3 Na-gluconate, 5 K-gluconate, 2.5 NaCl, 0.36 K2HPO4, 0.44 KH2PO4, 5.7 CaCl2, 0.5 MgCl2, 4.2 NaHCO3, 10 HEPES, and 10 mannitol, at pH 7.4. Buffers were aerated with a mixture of 95% O2 and 5% CO2 and the temperature was maintained at 37° C. during the experiment. […] After a stabilization period of 30 minutes, drugs were added at specific times, while the current was continuously recorded.

[4] = test system: ΔF508-CFTR; test: Chloride currents in Ussing chamber, CuFi-1 cells; assay type: cell-based, human; conditions: CuFi-1 cells corrected with VX-809 (20 μM, 24 hours); P1 10 μM, VX-770 10 μM
Procedure: as §1, §2

[5] = test system: PI3Kγ-bound phosphodiesterase 3B; conditions: in vitro, previous study (1); cited from earlier work
[6] = biological target: T1, association of PI3Kγ with PKA RII (Homo sapiens, UniProt P13861); conditions: in vitro, previous study (1); cited from earlier work
T1 construct: the regulatory subunit of PKA (PKA RII) was immunoprecipitated by incubating the protein extract; expressed in transfected cells; host or cells: HEK293 (ATCC CRL-1573) transfected with pcDNA3.1-PI3Kγ; PKA RII endogenous
T1 sequence (P13861 whole entry): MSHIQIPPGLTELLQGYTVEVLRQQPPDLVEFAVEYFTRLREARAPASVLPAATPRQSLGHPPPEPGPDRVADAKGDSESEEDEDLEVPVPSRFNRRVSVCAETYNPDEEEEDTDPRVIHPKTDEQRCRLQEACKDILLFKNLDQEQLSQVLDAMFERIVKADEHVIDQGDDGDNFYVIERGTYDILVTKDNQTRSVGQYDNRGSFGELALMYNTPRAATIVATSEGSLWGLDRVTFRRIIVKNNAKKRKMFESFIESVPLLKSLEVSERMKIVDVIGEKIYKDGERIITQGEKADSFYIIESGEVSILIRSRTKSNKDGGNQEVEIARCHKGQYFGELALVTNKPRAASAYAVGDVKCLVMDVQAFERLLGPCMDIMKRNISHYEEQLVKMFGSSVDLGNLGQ

| Sequence | influx of Ca2+ induced by KCl (through VOCCs) [1] | increase of cAMP accumulation following stimulation of β2-ARs [2] | CFTR-dependent Cl− currents [3] | CFTR activity in the presence of VX-770 [4] | activity of PI3Kγ-bound phosphodiesterase 3B [5] | PKA anchoring (PI3Kγ-PKA interaction) [6] |
| --- | --- | --- | --- | --- | --- | --- |
| RQIKIWFQNRRMKWKK (Antennapedia penetratin 1) [P1 control peptide, cell-penetrating Penetratin 1 of Antennapedia, used as control peptide, reference compound] | unchanged | unchanged | did not change | did not change | – | – |
| KATHRSPGQIHLVQRHPPSEESQAF (homo sapiens) [SEQ ID No.: 1] | – | – | – | – | decreases | inhibits |
